Data reported in patent publication US6781000B1, “Alpha-ketoamide inhibitors of 20S proteasome” (CV Theurapeutics, Inc., priority 1998, dated 2004).

biological target: T1, chymotrypsin-like activity of 20S proteasome (Bos taurus, UniProt Q2TBX6+Q32KL2); assay: 20S proteasome chymotryptic activity inhibition assay (Suc-Leu-Leu-Val-Tyr-AMC cleavage); type: biochemical; details: 2 μg 20S proteasome from bovine brain, 50 μM fluorogenic substrate, 15 minutes at 37° C., pH7.5
T1 construct: was purified to homogeneity from bovine brain according to published methods; from tissue; host or cells: bovine brain
Summary of the method: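 Bovine brain 20S proteasome (2 μg) with inhibitor at 0.1-100 μg/ml in 50 mM HEPES, 0.1% SDS, pH7.5. Reaction started with 50 μM Suc-LLVY-AMC, run 15 min at 37° C, stopped with pH 4.0 acetate; liberated AMC read by fluorescence (EX 370 nm, EM 430 nm).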

| SMILES | IC50 for the inhibition of the chymotrypsin-like activity of 20S proteasome | IC50 |
| --- | --- | --- |
| CCCCC(NC(=O)C(CC(C)C)NC(=O)C(Cc1ccc2ccccc2c1)NC(=O)C(=O)Cc1c[nH]c2ccccc12)C(=O)O (stereo not drawn) [Compound 178] | >10 µg/mL |  |
| CC(C)CC(NC(=O)C(Cc1ccc2ccccc2c1)NC(=O)C(=O)Cc1c[nH]c2ccccc12)C(=O)NC(Cc1ccccc1)C(=O)O (stereo not drawn) [Compound 179] | >10 µg/mL |  |
| CC(C)CC(NC(=O)C(Cc1ccc2ccccc2c1)NC(=O)C(=O)Cc1c[nH]c2ccccc12)C(=O)NC(CC(=O)O)C(=O)O (stereo not drawn) [Compound 180] | 5 µg/mL |  |
| CC(C)CC(NC(=O)C(=O)Cc1c[nH]c2ccccc12)C(=O)NC(Cc1ccccc1)C(=O)O (stereo not drawn) [Compound 182] | >10 µg/mL |  |
| CC(C)CC(NC(=O)CNC(=O)C(=O)Cc1c[nH]c2ccccc12)C(=O)NCC(=O)O (stereo not drawn) [Compound 184] | >10 µg/mL |  |
| CC(C)CC(NC(=O)C(Cc1ccc(-c2ccccc2)cc1)NC(=O)C(=O)Cc1c[nH]c2ccccc12)C(=O)NC(CC(N)=O)C(=O)O (stereo not drawn) [Compound 185] | 5 µg/mL |  |
| CC(C)CC(NC(=O)C(Cc1ccc(-c2ccccc2)cc1)NC(=O)C(=O)Cc1c[nH]c2ccccc12)C(=O)NC(CCC(N)=O)C(=O)O (stereo not drawn) [Compound 186] | >10 µg/mL |  |
| CC(C)CC(NC(=O)C(Cc1ccc(-c2ccccc2)cc1)NC(=O)C(=O)Cc1c[nH]c2ccccc12)C(=O)NC(Cc1ccc(-c2ccccc2)cc1)C(=O)O (stereo not drawn) [Compound 187] | >10 µg/mL |  |
| CC(C)CC(NC(=O)C(Cc1ccc(-c2ccccc2)cc1)NC(=O)C(=O)Cc1c[nH]c2ccccc12)C(=O)NCCC(=O)O (stereo not drawn) [Compound 188] | 5 µg/mL |  |
| CC(C)CC(NC(=O)C(Cc1ccc(-c2ccccc2)cc1)NC(=O)C(=O)Cc1c[nH]c2ccccc12)C(=O)NC(Cc1ccc(-c2ccccc2)cc1)C(=O)O (stereo not drawn) [Compound 189] | >10 µg/mL |  |
| CC(C)CC(NC(=O)C(Cc1ccc(-c2ccccc2)cc1)NC(=O)C(=O)Cc1c[nH]c2ccccc12)C(=O)NC(Cc1c[nH]cn1)C(=O)O (stereo not drawn) [Compound 190] | 3 µg/mL |  |
| CC(C)CC(NC(=O)C(Cc1ccc(-c2ccccc2)cc1)NC(=O)C(=O)Cc1c[nH]c2ccccc12)C(=O)NC(CCCNC(=N)N)C(=O)O (stereo not drawn) [Compound 191] |  | 4.31 µM |
| CC(C)CC(NC(=O)C(Cc1ccc(-c2ccccc2)cc1)NC(=O)C(=O)Cc1c[nH]c2ccccc12)C(=O)NC(Cc1cccnc1)C(=O)O (stereo not drawn) [Compound 192] | 3 µg/mL |  |
| CC(C)CC(NC(=O)C(Cc1ccc(-c2ccccc2)cc1)NC(=O)C(=O)Cc1c[nH]c2ccccc12)C(=O)NC(CCCCN)C(=O)O (stereo not drawn) [Compound 193] | >10 µg/mL |  |
| CC(C)CC(NC(=O)C(Cc1ccc(-c2ccccc2)cc1)NC(=O)C(=O)Cc1c[nH]c2ccccc12)C(=O)NC(C(=O)O)c1ccccc1 (stereo not drawn) [Compound 194] | >10 µg/mL |  |
| CC(C)CC(NC(=O)C(Cc1ccc(-c2ccccc2)cc1)NC(=O)C(=O)Cc1c[nH]c2ccccc12)C(=O)NC(CC(=O)O)C(=O)O (stereo not drawn) [Compound 195] | >10 µg/mL |  |
| CC(C)CC(NC(=O)C(Cc1ccc(-c2ccccc2)cc1)NC(=O)C(=O)Cc1c[nH]c2ccccc12)C(=O)NC(Cc1c[nH]cn1)C(=O)O (stereo not drawn) [Compound 196] | >10 µg/mL |  |
| CC(C)CC(NC(=O)C(Cc1ccc(-c2ccccc2)cc1)NC(=O)C(=O)Cc1c[nH]c2ccccc12)C(=O)NC(Cc1cscn1)C(=O)O (stereo not drawn) [Compound 198] | >10 µg/mL |  |
| CCCC(NC(=O)C(=O)Cc1c[nH]c2ccccc12)C(=O)NC(CC(C)C)C(=O)NC(C(=O)O)C(C)C (stereo not drawn) [Compound 199] | >10 µg/mL |  |
| CC(C)C[C@@H](NC(=O)[C@H](CC(=O)O)NC(=O)C(=O)Cc1c[nH]c2ccccc12)C(=O)N[C@H](C(=O)O)C(C)C [Compound 200] |  | > 18.8 µM |
| CCCC(NC(=O)C(=O)Cc1c[nH]c2ccccc12)C(=O)NC(CC(C)C)C(=O)NC(C(=O)O)C(C)C (stereo not drawn) [Compound 201] | >10 µg/mL |  |
| CC(C)C(NC(=O)C(NC(=O)C(Cc1ccc(O)cc1)NC(=O)C(=O)Cc1c[nH]c2ccccc12)C(C)C)C(=O)O (stereo not drawn) [Compound 202] | >10 µg/mL |  |
| CC(C)C(NC(=O)C(NC(=O)C(NC(=O)C(=O)Cc1c[nH]c2ccccc12)C(C)C)C(C)C)C(=O)O (stereo not drawn) [Compound 203] | >10 µg/mL |  |
| CC(C)CC(NC(=O)C(Cc1ccc2ccccc2c1)NC(=O)C(=O)Cc1c[nH]c2ccccc12)C(=O)NC(Cc1c[nH]cn1)C(=O)O (stereo not drawn) [Compound 204] | >10 µg/mL |  |
| CC(C)CC(NC(=O)C(Cc1ccc2ccccc2c1)NC(=O)C(=O)Cc1c[nH]c2ccccc12)C(=O)NC(CCCNC(=N)N)C(=O)O (stereo not drawn) [Compound 205] | >10 µg/mL |  |
| CC(C)CC(NC(=O)C(Cc1ccc2ccccc2c1)NC(=O)C(=O)Cc1c[nH]c2ccccc12)C(=O)NC(Cc1cccnc1)C(=O)O (stereo not drawn) [Compound 206] | >10 µg/mL |  |

biological target: T2, peptidylglutamyl activity of 20S proteasome (Bos taurus, UniProt Q2TBP0+Q3MHN0); assay: 20S proteasome peptidylglutamyl activity inhibition assay (CBZ-D-Ala-Leu-Glu-AMC cleavage); type: biochemical; details: Example 6: 2 μg 20S proteasome from bovine brain, substrate CBZ D-Ala-Leu-Glu-AMC, 15 minutes at 37° C.
T2 construct: was purified to homogeneity from bovine brain according to published methods; from tissue; host or cells: bovine brain
Experimental: Compounds of this invention prepared according to the method of Example 1 were also tested as follows. The 20S catalytic subunit of the proteasome (also known as the multicatalytic proteinase complex) was purified to homogeneity from bovine brain according to published methods (Wilk S. and Orlowski, M. 1983, 40 842 J. Neurochem). […] of the complex is measured by the increase in fluorescence following cleavage of the substrate peptide CBZ D-Ala-Leu-Glu-(7-amino-4-methyl coumarin). The standard in vitro assay consists of 2 μg 20S proteasome, 0.1-100 μg/ml proteasome inhibitor in […] 50 mM HEPES, containing 0.1% sodium dodecyl sulphate, pH 7.5. The proteolytic reaction is initiated by the addition of […] fluorogenic peptide substrate and allowed to progress for 15 minutes at 37° C. The reaction is terminated by the addition of […] 100 mM acetate buffer, pH 4.0. The rate of proteolysis is directly proportional to the amount of liberated aminomethylcoumarin which is measured by fluorescent spectroscopy (EX 370 nm, EM 430 nm). Compounds 1-207 were tested for peptidylglutamyl activity inhibition at >10 μg/mL. Compound 190 was active at 5 μg/mL.

| SMILES | peptidylglutamyl activity inhibition, active at |
| --- | --- |
| CC(C)CC(NC(=O)C(Cc1ccc(-c2ccccc2)cc1)NC(=O)C(=O)Cc1c[nH]c2ccccc12)C(=O)NC(Cc1c[nH]cn1)C(=O)O (stereo not drawn) [Compound 190] | 5 µg/mL |
